In patent publication US20250073340A1, “SPIROCYCLIC MDM2 MODULATOR AND USES THEREOF” (Newave Pharmaceutical Inc., priority 2021, published 2025):

Assays:
[1] = target: MDM2 (Homo sapiens (Human), UniProt Q00987); experiment: In vitro MDM2 HTRF assay (inhibition of p53-MDM2 interaction); format: binding; details: GST-MDM2 / biotinylated p53 peptide
[2] = tested on: BCL-2-dependent acute lymphoblastic leukemia (ALL) cell line RS4;11 overexpressing Bcl-2 G101V; experiment: cells; format: cell-based; details: Homo sapiens, RS4-11; about 72 hours, ATPlite luminescence; read-out: RS4;11-G101V IC50
Method in brief: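 About 1×10^4 cells per well treated with compound for about 72 hours in medium with 5% FBS or 10% normal human serum. Viability from ATP-based luminescence (ATPlite) after lysis; IC50 derived from dose range.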

[3] = Mice PK study; format: in vivo; details: 25 mg/kg; Oral, 25 mpk, CD-1 mouse, plasma
Description: Biological Example 4: Mice PK Study
The pharmacokinetics of compounds were evaluated in CD-1 mouse via Intravenous and Oral Administration. The IV dose was administered as a slow bolus in the Jugular vein, and oral doses were administered by gavage. The formulation for IV dosing was 5% DMSO in 20% HPBCD in water, and the PO formulation was 2.5% DMSO, 10% EtOH, 20% Cremphor EL, 67.5% D5W. The PK time point for the IV arm was 5, 15, 30 min, 1, 2, 4, 6, 8, 12, 24 hours post dose, and for PO arm was 15, 30 min, 1, 2, 4, 6, 8, 12, 24 hours post dose. Approximately 0.03 mL blood was collected at each time point. Blood of each sample was transferred into plastic micro centrifuge tubes containing EDTA-K2 and collect plasma within 15 min by centrifugation at 4000 g for 5 minutes in a 4° C. centrifuge. Plasma samples were stored in polypropylene tubes. The samples were stored in a freezer at −75±15° C. prior to analysis. Concentrations of compounds in the plasma samples were analyzed using a LC-MS/MS method. […] The following pharmacokinetic parameters were calculated, whenever possible from the plasma concentration versus time data: IV administration: C0, CL, Vd, T1/2, AUCinf, AUClast, MRT, Number of Points for Regression; PO administration: Cmax, Tmax, T1/2, AUCinf, AUClast, F %, Number of Points for Regression. […]

MDM2, sequence (Q00987 whole entry): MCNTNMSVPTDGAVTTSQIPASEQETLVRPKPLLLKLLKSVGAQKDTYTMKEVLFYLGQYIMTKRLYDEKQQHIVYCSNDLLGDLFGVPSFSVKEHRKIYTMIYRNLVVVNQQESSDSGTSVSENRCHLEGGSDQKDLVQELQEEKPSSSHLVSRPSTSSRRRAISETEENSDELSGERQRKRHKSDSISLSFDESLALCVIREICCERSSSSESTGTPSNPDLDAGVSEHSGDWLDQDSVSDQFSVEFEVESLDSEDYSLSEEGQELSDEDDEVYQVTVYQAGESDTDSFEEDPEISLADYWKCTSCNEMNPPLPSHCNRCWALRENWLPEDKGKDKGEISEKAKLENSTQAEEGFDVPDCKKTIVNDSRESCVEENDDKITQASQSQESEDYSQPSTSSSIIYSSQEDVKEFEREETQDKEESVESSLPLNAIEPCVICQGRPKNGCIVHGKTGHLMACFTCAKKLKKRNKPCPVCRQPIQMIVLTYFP

SMILES	IC50 [1] [µM]	IC50 [2] [µM]	AUC [3] [ng·h/mL]
COc1cc(C(=O)N2CCC3(CC2)C[C@@H]3C#Cc2cccc3c2CN([C@H]2CCC(=O)NC2=O)C3=O)ccc1NC(=O)[C@@H]1N[C@@H](CC(C)(C)C)[C@@]2(CNc3cc(Cl)ccc32)[C@H]1c1cccc(Cl)c1F [Example 58, (2′S,3S,4′S,5′R)-6-chloro-4′-(3-chloro-2-fluorophenyl)-2′-(2,2-dimethylpropyl)-N-{4-[(1S)-1-(2-{2-[(3S)-2,6-dioxopiperidin-3-yl]-1-oxo-3H-isoindol-4-yl}ethynyl)-6-azaspiro[2.5]octane-6-carbonyl]-2-methoxyphenyl}-1,2-dihydrospiro[indole-3,3′-pyrrolidine]-5′-carboxamide]	0.00338	0.00771	49400
COc1cc(C(=O)N2CC[C@@H](C#Cc3cccc4c3CN(C3CCC(=O)NC3=O)C4=O)C2)ccc1NC(=O)[C@@H]1N[C@@H](CC(C)(C)C)[C@@]2(CNc3cc(Cl)ccc32)[C@H]1c1cccc(Cl)c1F (stereo partly drawn) [Example 49, (2′S,3S,4′S,5′R)-6-chloro-4′-(3-chloro-2-fluorophenyl)-2′-(2,2-dimethylpropyl)-N-{4-[(3S)-3-{2-[2-(2,6-dioxopiperidin-3-yl)-1-oxo-3H-isoindol-4-yl]ethynyl}pyrrolidine-1-carbonyl]-2-methoxyphenyl}-1,2-dihydrospiro[indole-3,3′-pyrrolidine]-5′-carboxamide]	0.00105	0.0141	–
CC(C)(C)C[C@H]1N[C@H](C(=O)N2CCOc3cc(C(N)=O)ccc32)[C@@H](c2cccc(Cl)c2F)[C@@]12CNc1cc(Cl)ccc12 [Example 15, 4-((2′R,3R,4′R,5′S)-6-chloro-4′-(3-chloro-2-fluorophenyl)-2′-neopentylspiro[indoline-3,3′-pyrrolidine]-5′-carbonyl)-3,4-dihydro-2H-benzo[b][1,4]oxazine-7-carboxamide]	0.638	> 1	–
COc1cc(C(N)=O)ccc1NC(=O)[C@@H]1N[C@@H](CC(C)(C)C)[C@@]2(CNc3cc(C(F)(F)F)ncc32)[C@H]1c1cccc(Cl)c1F [Example 11, (2S,3S,4S,5R)—N-(4-carbamoyl-2-methoxyphenyl)-4-(3-chloro-2-fluorophenyl)-2-(2,2-dimethylpropyl)-6′-(trifluoromethyl)-1′,2′-dihydrospiro[pyrrolidine-3,3′-pyrrolo[3,2-c]pyridine]-5-carboxamide]	0.00018	0.0447	–
COc1cc(N2CCC3(CC2)CC([C@@H]2C[C@H]2C#Cc2cccc4c2CN(C2CCC(=O)NC2=O)C4=O)C3)ccc1NC(=O)[C@@H]1N[C@@H](CC(C)(C)C)[C@@]2(CNc3cc(Cl)ccc32)[C@H]1c1cccc(Cl)c1F (stereo partly drawn) [Example 22, (2′S,3S,4′S,5′R)-6-chloro-4′-(3-chloro-2-fluorophenyl)-N-(4-(2-((1S,2R)-2-((2-(2,6-dioxopiperidin-3-yl)-1-oxoisoindolin-4-yl)ethynyl)cyclopropyl)-7-azaspiro[3.5]nonan-7-yl)-2-methoxyphenyl)-2′-neopentylspiro[indoline-3,3′-pyrrolidine]-5′-carboxamide]	0.272	> 1	–
COc1cc(N2CCC3(CC2)CC([C@H]2C[C@@H]2C#Cc2cccc4c2CN(C2CCC(=O)NC2=O)C4=O)C3)ccc1NC(=O)[C@@H]1N[C@@H](CC(C)(C)C)[C@@]2(CNc3cc(Cl)ccc32)[C@H]1c1cccc(Cl)c1F (stereo partly drawn) [Example 23, (2′S,3S,4′S,5′R)-6-chloro-4′-(3-chloro-2-fluorophenyl)-N-(4-(2-((1R,2S)-2-((2-(2,6-dioxopiperidin-3-yl)-1-oxoisoindolin-4-yl)ethynyl)cyclopropyl)-7-azaspiro[3.5]nonan-7-yl)-2-methoxyphenyl)-2′-neopentylspiro[indoline-3,3′-pyrrolidine]-5′-carboxamide]	0.169	> 1	–
COc1cc(C(=O)NCCCC#Cc2cccc3c2CN(C2CCC(=O)NC2=O)C3=O)ccc1NC(=O)[C@@H]1N[C@@H](CC(C)(C)C)[C@@]2(CNc3cc(Cl)ccc32)[C@H]1c1cccc(Cl)c1F (stereo partly drawn) [Example 16, (2′S,3S,4′S,5′R)-6-chloro-4′-(3-chloro-2-fluorophenyl)-N-(4-((5-(2-(2,6-dioxopiperidin-3-yl)-1-oxoisoindolin-4-yl)pent-4-yn-1-yl)carbamoyl)-2-methoxyphenyl)-2′-neopentylspiro[indoline-3,3′-pyrrolidine]-5′-carboxamide]	0.00154	0.0101	–
COc1cc(C(=O)N2CCCC[C@H]2CCC#Cc2cccc3c2CN([C@@H]2CCC(=O)NC2=O)C3=O)ccc1NC(=O)[C@@H]1N[C@@H](CC(C)(C)C)[C@@]2(CNc3cc(Cl)ccc32)[C@H]1c1cccc(Cl)c1F [Example 38, (2′S,3S,4′S,5′R)-6-chloro-4′-(3-chloro-2-fluorophenyl)-2′-(2,2-dimethylpropyl)-N-{4-[(2S)-2-(4-{2-[(3R)-2,6-dioxopiperidin-3-yl]-1-oxo-3H-isoindol-4-yl}but-3-yn-1-yl)piperidine-1-carbonyl]-2-methoxyphenyl}-1,2-dihydrospiro[indole-3,3′-pyrrolidine]-5′-carboxamide]	0.00382	0.0679	–
